Results taken from patent US6464980B1, “MAGE-1 c-terminal immunogenic peptides” (Epimmune Inc., priority 1993, dated 2002).

Tests used:
HLA-A3 class I molecule = HLA-A3 class I molecule (Homo sapiens, UniProt P04439); assay: class I binding assay, HLA-A3; conditions: Table 2 MAGE CTL targets, column A3; unit not given
Protocol: (§1) Peptides comprising the CTL epitopes are synthesized and the ability to bind appropriate MHC molecules is determined in assays using, for example, purified class I molecules and radioiodinated peptides and/or cells expressing empty class I molecules by, for instance, immunofluorescent staining and flow microfluorimetry, peptide-dependent class I assembly assays, and inhibition of CTL recognition by peptide competition. Those peptides that bind to the class I molecule are further chosen for their ability to serve as targets for CTLs derived from afflicted individuals, as well as for their capacity to induce primary in vitro or in vivo CTL responses that can give rise to CTL populations capable of reacting with tumor cells as therapeutic agents. Methods for determining allele-specific peptides and peptide motifs are described in co-pending commonly owned applications U.S. Ser. No. 027,146 and U.S. Ser. No. 027,746, which are incorporated herein by reference.
(§2) These peptides were then evaluated as to their capacity to bind to the appropriate class I molecules using specific binding assays as described in copending and commonly owned application U.S. Ser. No. 08/027,746, incorporated herein by reference.

HLA-A11 class I molecule = assay: class I binding assay, HLA-A11; parameters: species or system human; conditions: Table 2 MAGE CTL targets, column A11; unit not given
Protocol: as §1, §2

HLA-A2 class I molecule = HLA-A2 class I molecule (Homo sapiens, UniProt P04439, D140Y/D185E/D98H/E176V/E277Q/G131W/G231S/I119V/I121R/I166T/I218V/L300P/L318F/N151K/N90K/P208A/P217A/Q86G/Q94H/R138H/R169H/T345S); assay: class I binding assay, HLA-A2; conditions: Table 2 MAGE CTL targets, column A2; unit not given
Protocol: as §1, §2

HLA-A1 class I molecule = assay: class I binding assay, HLA-A1; parameters: species or system human; conditions: Table 2 MAGE CTL targets, column A1; unit not given
Protocol: as §1, §2

HLA-A24 class I molecule = assay: class I binding assay, HLA-A24; parameters: species or system human; conditions: Table 2 MAGE CTL targets, column A24; unit not given
Protocol: as §1, §2

[1] = target: HLA-A1 class I molecule (human); assay: class I binding assay as described in U.S. Ser. No. 08/027,746; format not described here
[2] = target: HLA-A24.1 class I molecule (human); assay: as above

Row | Molecule | A3 (binding to class I molecule) (HLA-A3 class I molecule) | A11 (binding to class I molecule) (HLA-A11 class I molecule) | further results
1 | ALAETSYVK [Id 1072.38, MAGE-1 C-terminal peptide, position 271,9-mer, motif A03/11] | 0.3100 | 0.3600 | 
2 | ALAETSYVKV [Id 1072.33] |  |  | A2 (binding to class I molecule) (HLA-A2 class I molecule): 0.0150
3 | DLVQEKYLEY [1072 40, MAGE-1 peptide, position 242, 10-mer, motif A03] | 0.0320 | 0.0051 | 
4 | ETSYVKVLEY [Id 1072.28, MAGE-1 C-terminal peptide, position 274, 10-mer, motif A01/11] |  |  | A1 (binding to class I molecule) (HLA-A1 class I molecule): 0.5600
5 | RVRFFFPSLR [Id 1072.37, MAGE-1 C-terminal peptide, position 290, 10-mer, motif A03/11] | 0.4300 | 0.0089 | 
6 | SYVKVLEYVI [Id 1072.43, MAGE-1 C-terminal peptide, position 276, 10-mer, motif A24] |  |  | A24 (binding to class I molecule) (HLA-A24 class I molecule): 0.0360
7 | TSYVKVLEY [Id 1072.29, MAGE-1 C-terminal peptide, position 275,9-mer, motif A01/11] |  |  | A1 (binding to class I molecule) (HLA-A1 class I molecule): 0.0990
8 | YVIKVSARV [Id 1072.34] |  |  | A2 (binding to class I molecule) (HLA-A2 class I molecule): 0.0140
9 | YVIKVSARVR [Id 1072.41, MAGE-1 C-terminal peptide, position 283, 10-mer, motif A03] | 0.0190 | 0.0009 | 
10 | ETSYVKVLEY |  |  | binding value under column A1 (quantity not explained) [1]: 0.56
11 | SYVKVLEYVI |  |  | binding value under column A24 (quantity not explained) [2]: 0.036
12 | TSYVKVLEY |  |  | binding value under column A1 (quantity not explained) [1]: 0.099

More lines, main results first:

Row | A3 (binding to class I molecule) (HLA-A3 class I molecule) | A11 (binding to class I molecule) (HLA-A11 class I molecule) | Molecule | further results
13 | 0.0026 | 0.0340 | LVQEKYLEY [Id 1072.42, MAGE-1 peptide, position 243,9-mer, motif A11] | 
14 | 0.1800 | 0.2400 | RALAETSYVK (RALAETSYVKVK) [Id 1072.39, MAGE-1 C-terminal peptide, position 270, 10-mer, motif A03/11] | 
15 | 0.7100 | 0.0100 | TSYVKVLEY [Id 1072.36, MAGE-1 C-terminal peptide, position 275,9-mer, motif A03/11] | 
